Data on one compound can be found in patent US6376484B1, “Tetrazole compounds and pharmaceutical agents containing such derivative as an active ingredient” (Ono Pharmaceutical Co., Ltd., priority 1995, dated 2002).

SMILES strings stand for the structures.

In general, IC50 refers to the midpoint of a concentration-inhibition curve.

The assay concerns the target T1, human ICE (IL-1β converting enzyme) (Homo sapiens, UniProt P29466).
T1 sequence (P29466 120-297 limits assumed): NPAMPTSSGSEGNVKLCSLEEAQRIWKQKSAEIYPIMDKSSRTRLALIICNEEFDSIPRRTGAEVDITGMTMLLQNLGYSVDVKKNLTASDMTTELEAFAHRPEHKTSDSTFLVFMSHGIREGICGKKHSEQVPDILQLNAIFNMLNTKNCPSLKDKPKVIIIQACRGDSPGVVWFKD
T1 sequence (P29466 317-404 limits assumed): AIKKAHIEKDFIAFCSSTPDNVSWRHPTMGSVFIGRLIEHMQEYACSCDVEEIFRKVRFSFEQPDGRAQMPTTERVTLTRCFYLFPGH
The assay is described as follows: Assay for IL-1β converting enzyme (ICE) inhibition, fluorogenic substrate Ac-Tyr-Val-Ala-Asp-MCA. To be noted: human ICE solution, 37° C., fluorescence, read-out: IC50, ICE inhibitory activity. The class given is biochemical. As for the experimental part:
(1) Assay for IL-1β converting enzyme
The reaction mixture contains, for example, 20 mM of HEPES-NaOH pH7.4, 10 mM of KOH, 1.5 mM of MgCl2, 0.1 mM of EDTA and 10% glycerol. Various concentrations of test compounds (50 μl), human ICE solution (50 μl) and various concentrations of substrate (Ac-Tyr-Val-Ala-Asp-MCA) were mixed and incubated at 37° C. Fluorescence intensity was measured at […].
In the aboved example method,
HEPES is 4-(2-Hydroxyethyl)-1-piperazineethane-sulfonic acid,
EDTA is Ethylenediamine tetraacetate, and
Ac-Tyr-Val-Ala-Asp-MCA is Acetyl-L-tyrosyl-L-valyl-L-alanyl-L-asparaginic acid 4-methyl-coumarinyl-7-amide.

With `CC(C)[C@H](NC(=O)CCc1ccccc1)C(=O)N[C@@H](C)C(=O)NC(CC(=O)O)C(=O)Cn1nnnc1Cc1c(Cl)cccc1Cl` (stereo partly drawn) [Example 2(1), N-((N-(3-phenylpropionyl)-L-valyl)-L-alanyl)-3-amino-4-oxo-5-(5-(2,6-dichlorophenylmethyl)tetrazol-1-yl)pentanoic acid], the IC50 was determined as 30 nM.
